The test system of the experiment is S. cerevisiae tim10 strain, luminescence counterscreen. The experiment in a line: TIM10 strain luminescence inhibitors – S. cerevisiae, uHTS hits, counter-screen for tim23-1 inhibitor project, dose response (AID 504672).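 Note: yeast grew roughly 22 hours at 25 °C before the luminescence read.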

Calls of active or inactive are those of the source. Cut-off read from the data, not from the text of the source: active = IC50 below about 71 µM; inactive = the rest.

Turning to `O=C(CSc1cccs1)Nc1ccc2ccccc2c1`, the concentration for half-maximal inhibition (IC50) (in general, the concentration at which inhibition is half-maximal) is 24.4 µM.

On to `COc1cccc(Nc2nc(-c3ccccc3)nc3ccccc23)c1`, for which the IC50 was 7.48 µM.

Take `COn1c(=O)c(-c2cccs2)[n+]([O-])c2ccccc21`: the IC50 is 6.58 µM.

In the case of `CSc1nnc(C)c(/C=C/NOCc2ccc(Cl)cc2)n1`, the IC50 is 5.56 µM.

With `c1ccc(-c2nc(NCc3cccs3)c3ccccc3n2)cc1`, the IC50 was 14.3 µM.

Regarding `CCOC(=O)c1sc(=NC(=O)c2ccco2)n(C)c1C`, the IC50 was 46.5 µM.

`COc1ccc(-c2cc(-c3ccccc3O)[nH]n2)cc1`: the IC50 is 12.4 µM.

Consider `COC(=O)c1ccc(NC(=O)c2nc(S(=O)(=O)Cc3cccc(C)c3)ncc2Cl)cc1`, for which the IC50 was 2.01 µM.

Regarding `Cn1c(=O)c(C(=O)Nc2ncccn2)c(O)c2ccccc21`, the IC50 was 4.78 µM.

Consider `O=C(Nc1nccs1)c1ccc(Cl)s1`, for which the IC50 was 13.3 µM.

`CO/C(N)=C(\C#N)N=Cc1ccccc1Cl`: the IC50 was 77.2 µM.

As to `CCc1cccc2c(C(=O)CCl)c[nH]c12`, the IC50 is 25.1 µM.

`O=C(N/N=C/c1coc2ccc(Cl)cc2c1=O)c1ccncc1`: the IC50 is 87.1 µM.

On to `CCSc1ncc(/C=N/Nc2ccc(Cl)cc2)n1C`, for which the IC50 is 10.9 µM.

Take `CC(C)(C)c1ccc(OCC(=O)NCc2ccco2)c(Br)c1`: the IC50 is 12.2 µM.

As to `O=C(CSc1ccccc1)N/N=C/c1ccccc1O`, the IC50 is 10.9 µM.

In the case of `c1cnc2c(c1)ccc1cccnc12`, the IC50 is 12.3 µM.

Take `CCOC(=O)NNc1ccc2nonc2c1[N+](=O)[O-]`: the IC50 is 10.3 µM.

In the case of `COc1cc(C(=O)N/N=C/c2coc3ccc(Cl)cc3c2=O)ccc1O`, the IC50 is 6.59 µM.

For `CC(C)Oc1cc(O)c2c(=O)c(-c3ccc(O)cc3)coc2c1`, the IC50 was 10.1 µM.

Consider `O=C(Oc1ccc(=O)n(-c2ccccc2)n1)c1ccc(Cl)cc1`, for which the IC50 is 34.7 µM.

`CC1(C)CC(=O)C=C(c2cccc(Cl)c2O)C1`: the IC50 is 13.1 µM.

Take `CNC(=S)N/N=C/c1cc(Br)cc(Br)c1O`: the IC50 was 8.2 µM.

For `Cc1ccc2oc(C(Cl)(Cl)Cl)cc(=O)c2c1`, the IC50 is 8.7 µM.

As to `COC(=O)N/N=C/c1ccc(-c2cc(Cl)cc(Cl)c2)o1`, the IC50 was 18 µM.

Take `O=C(Nc1nc(-c2cccs2)c(-c2ccccc2)s1)c1ccco1`: the IC50 was 28.6 µM.

As to `O=C(Nc1cccc(NC(=O)c2cccs2)c1)c1ccc(Br)o1`, the IC50 is 15 µM.

With `O=C(/C=C/c1ccccc1Cl)Nc1ccccc1`, the IC50 is 44.7 µM.

In the case of `O=C(Nc1ccc(F)c(Cl)c1)c1ccccc1`, the IC50 is 5.55 µM.

Turning to `COc1cccc(Nc2nc3ccc(OC)cc3s2)c1`, the IC50 was 11.2 µM.

With `CC(C)n1cc(NC(=O)c2cc(-c3ccccc3)on2)cn1`, the IC50 was 14.3 µM.

Turning to `Cc1ccc(NC(=O)c2ccc3c(c2)OCCO3)cc1C`, the IC50 was 4.16 µM.

Consider `C=CCn1c(SCc2cc(=O)n3ccsc3n2)nc2cc(Cl)ccc2c1=O`, for which the IC50 was 9.66 µM.

Take `Oc1ccc(Oc2ccc(Oc3ccc(O)cc3)cc2)cc1`: the IC50 was 30.4 µM.

Consider `Cc1nc2ccc(C(C(F)(F)F)(C(F)(F)F)C(F)(F)F)cc2[nH]1`, for which the IC50 is 19.9 µM.

Regarding `c1ccc(Nc2nc(-c3ccccc3)nc3ccccc23)cc1`, the IC50 was 6.7 µM.

With `O=C(Nc1ccc2oc(-c3ccccc3)nc2c1)c1cccnc1`, the IC50 is 10.8 µM.

With `CN(C)/C=C1/C=C(c2ccccc2)OC1=O`, the IC50 was 36.8 µM.

Take `CN1CCc2nc3sc(C(=O)C45CC6CC(CC(C6)C4)C5)c(N)c3cc2C1`: the IC50 was 86.3 µM.

Take `CCOC(=O)Nc1ccc2c(c1)Nc1ccccc1S2`: the IC50 is 12.7 µM.

`O=[N+]([O-])c1ccc(N/N=C/c2cccc(O)c2)cc1`: the IC50 was 6.08 µM.

For the compound `O=C(CSc1cccc[n+]1[O-])Nc1ccccc1Oc1ccccc1`, the IC50 is 17.7 µM.

On to `O=C(NCc1ccc2c(c1)OCO2)c1c(O)nc2sccn2c1=O`, for which the IC50 was 1.63 µM.

With `COc1ccc(CCN(/C=C2\Sc3ccccc3C2=O)C(C)=O)cc1OC`, the IC50 was 26.3 µM.

With `c1ccc2[nH]c(CSc3nc4ccccc4o3)nc2c1`, the IC50 was 18.6 µM.

On to `Cc1ccc(Nc2cc(C)c3ccc(O)cc3n2)cc1C`, for which the IC50 was 27.2 µM.

Regarding `N#C/C(N)=C(/C#N)N=Cc1cccc(Cl)c1`, the IC50 is 14.2 µM.

Consider `Cc1ccc(NC(=S)NC(=O)C2CC2)cc1Cl`, for which the IC50 was 8.83 µM.

Take `Cc1ccc(-c2nnc(N3CCC(C)CC3)c3ccccc23)cc1`: the half-inhibitory concentration (IC50) is 11.9 µM.

For the compound `O=C(Nc1ncc([N+](=O)[O-])s1)c1ccc2c(c1)OCO2`, the IC50 was 15.8 µM.

As for `O=C1Nc2ccccc2/C1=C/c1ccccc1Cl`, the IC50 is 8.06 µM.

Consider `CCOc1ccc(N=C(C)C2=C(O)c3ccccc3C2=O)cc1`, for which the IC50 was 26.4 µM.

Consider `CCOC(=O)c1c(C)oc2c1c(C(c1cccnc1)N1CCCCC1)c(O)c1ccccc12` (centres undefined), for which the IC50 was 36.1 µM.

Turning to `Oc1ccc(/C=N/Nc2cccc(Cl)n2)c(O)c1`, the IC50 is 14.9 µM.

Turning to `Nc1ccc2nc(SCc3ccccc3F)sc2c1`, the IC50 is 20.6 µM.

Regarding `COCCNC(=O)/C(C#N)=C/c1ccc(OCc2ccccc2)cc1`, the IC50 was 16.6 µM.

Take `N#Cc1c(-c2ccccc2)cc(-c2ccc(O)cc2)nc1N`: the IC50 is 9.91 µM.

For `O=C(Nc1ccccc1N(C(=O)c1ccco1)S(=O)(=O)c1cccs1)c1ccco1`, the IC50 was 19.4 µM.

`O=C1NN=C(c2ccc(Br)cc2)CC1c1ccc(Cl)cc1` (centres undefined): the IC50 was 23.2 µM.

Consider `COc1ccc(C(C[N+](=O)[O-])c2c(-c3ccccc3)cc3ccccn23)cc1OC` (centres undefined), for which the IC50 was 21 µM.

In the case of `Nc1ccc(/C=C/C(=O)c2cccs2)cc1`, the IC50 was 3.17 µM.

On to `CN=c1scc(-c2cccs2)n1/N=C/c1ccc(O)c(O)c1O`, for which the IC50 is 11 µM.

With `Clc1nssc1=Nc1nncs1`, the IC50 was 2.6 µM.

In the case of `O=c1c2ccccc2nc(-c2ccc([N+](=O)[O-])cc2)n1O`, the IC50 is 4.86 µM.

`COc1cc2c(cc1OC)/C(=C/c1ccc(Cl)cc1)C(=O)OC2`: the IC50 is 50.9 µM.

`O=C(COC(=O)CC1CCCC1)Nc1ccc(Cl)cc1`: the IC50 is 7.89 µM.

With `CCOC(=O)c1cnc(-n2nc(C)cc2C)nc1NCCc1ccccc1`, the IC50 was 8.35 µM.

In the case of `O=C(Nc1ccc(-c2cn3ccccc3n2)cc1)c1cccs1`, the IC50 was > 100 µM (inactive).

In the case of `N=C1/C(=C\c2coc3ccccc3c2=O)C(=O)N=C2SC=CN12`, the IC50 was 7.35 µM.

Regarding `Oc1ccc(Br)cc1/C=N/Nc1ccccn1`, the IC50 was 5.94 µM.

As to `Cc1ccc2nc(N3CCN(C=O)CC3)nc(-c3ccccc3)c2c1`, the IC50 was 9.88 µM.

As to `CCCC(=O)NC(c1ccc(C(C)C)cc1)c1ccc2cccnc2c1O` (centres undefined), the IC50 is 7.76 µM.

With `CCc1ccc2oc(-c3cc(N)ccc3Cl)nc2c1`, the IC50 is 17 µM.

Consider `C/C=C/c1ccc(OCCOc2cc(C=O)ccc2OC)c(OC)c1`, for which the IC50 was 16.8 µM.

Take `CC1(C)CC(n2c(NCCO)nc3c(c2=O)C2(CCCC2)Cc2ccccc2-3)CCO1` (centres undefined): the IC50 was 12.4 µM.

Turning to `COc1cc(NC(=O)c2cccs2)ccc1NC(=O)c1ccccc1Cl`, the IC50 was 16.2 µM.

With `Oc1ccccc1C1NN=C(c2ccccc2)S1` (centres undefined), the IC50 was > 100 µM (inactive).

`O=c1c2ccccc2[nH]c(=S)n1CCN1CCC(=C(c2ccc(F)cc2)c2ccc(F)cc2)CC1`: the IC50 is 12.7 µM.

For `COc1cc2c3c(c1)C(C)=CC(C)(C)N3C(=O)C2=O`, the IC50 was 16 µM.
